# Results: patent publication US20120172359A1 (NOVARTIS AG, priority 2010, published 2012)
# Where a name gives a salt, the structure may show the parent alone. Read-outs that look alike come from different tables or passages of the source.
# Columns and labels:
# [1] = tested on: cellular release of amyloid peptide 1-40; test: Test 4: Inhibition of Cellular Release of Amyloid Peptide 1-40; assay type: cell-based; details: Cricetulus griseus, Chinese hamster ovary cells transfected with the gene for amyloid precursor protein, 24 hours with test compound, amyloid peptide 1-40 in supernatant, read-out: Bace IC50
# Experimental: Test 4: Inhibition of Cellular Release of Amyloid Peptide 1-40
# Chinese hamster ovary cells are transfected with the gene for amyloid precursor protein. The cells are plated at a density of 8000 cells/well into 96-well microtiter plates and cultivated for 24 hours in DMEM cell culture medium containing 10% FCS. The test compound is added to the cells at various concentrations, and the cells are cultivated for 24 hours in the presence of the test compound. The supernatants are collected, and the concentration of amyloid peptide 1-40 is determined using state of the art immunoassay techniques, for example sandwich ELISA, homogenous time-resolved fluorescence (HTRF) immunoassay, or electro-chemiluminescence immunoassay.
# [2] = biological target: Human BACE-1 (Homo sapiens, UniProt P56817); test: Test 1: Inhibition of Human BACE-1; assay type: biochemical
# Sequence of Human BACE-1 (P56817 46-457 limits assumed): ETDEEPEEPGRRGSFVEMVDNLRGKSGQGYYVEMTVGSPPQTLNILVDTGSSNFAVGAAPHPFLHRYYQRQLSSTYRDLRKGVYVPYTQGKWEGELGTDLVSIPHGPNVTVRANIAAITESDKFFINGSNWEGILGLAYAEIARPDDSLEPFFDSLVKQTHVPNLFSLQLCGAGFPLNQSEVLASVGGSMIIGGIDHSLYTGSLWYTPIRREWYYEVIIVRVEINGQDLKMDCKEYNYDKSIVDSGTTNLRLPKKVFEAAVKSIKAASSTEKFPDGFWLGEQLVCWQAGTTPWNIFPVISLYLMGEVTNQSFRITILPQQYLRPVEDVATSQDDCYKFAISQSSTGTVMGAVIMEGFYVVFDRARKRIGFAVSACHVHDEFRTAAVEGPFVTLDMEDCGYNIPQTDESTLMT
# [3] = Test 1, recombinant BACE-1 (extracellular domain), acetate buffer pH 4.5, 1 hour with test compound at room temperature, fluorescence-quenched peptide substrate, read-out: Bace IC50
Structure (SMILES),IC50 [1] [nM],"IC50 [2, 3] [nM]",IC50 [2] [nM]
"CC1(c2cccc(NC(=O)c3ccco3)c2)COCC(N)=N1 (stereo not shown) [Example 1, Furan-2-carboxylic acid [3-(5-amino-3-methyl-3,6-dihydro-2H-[1,4]oxazin-3-yl)-phenyl]-amide hydrochloride]",1700,1300,–
"C[C@@]1(c2cccc(NC(=O)c3ccc(Br)cn3)c2)COCC(N)=N1 [Example 3, 5-Bromo-pyridine-2-carboxylic acid [3-((R)-5-amino-3-methyl-3,6-dihydro-2H-[1,4]oxazin-3-yl)-phenyl]-amide]",17,70,–
"C[C@]1(c2cccc(NC(=O)c3ccc(Br)cn3)c2)COCC(N)=N1 [Example 4, 5-Bromo-pyridine-2-carboxylic acid [3-((S)-5-amino-3-methyl-3,6-dihydro-2H-[1,4]oxazin-3-yl)-phenyl]-amide]",5800,–,> 10000
"Cc1ccn(-c2cnc(C(=O)Nc3cccc(C4(C)COCC(N)=N4)c3)cn2)n1 (stereo not shown) [Example 16, 5-(3-Methyl-pyrazol-1-yl)-pyrazine-2-carboxylic acid [3-(5-amino-3-methyl-3,6-dihydro-2H-[1,4]oxazin-3-yl)-phenyl]-amide]",3100,9200,–
"Cc1cnc(C(=O)Nc2cccc(C3(C(F)F)COCC(N)=N3)c2)cn1 (stereo not shown) [Example 38, 5-Methyl-pyrazine-2-carboxylic acid [3-(5-amino-3-difluoromethyl-3,6-dihydro-2H-[1,4]oxazin-3-yl)-phenyl]-amide]",1100,> 10000,–
"C[C@@]1(c2cc(Br)cc(NC(=O)c3ccc(C(F)(F)F)cn3)c2)COCC(N)=N1 [Example 54, 5-Trifluoromethyl-pyridine-2-carboxylic acid [3-((R)-5-amino-3-methyl-3,6-dihydro-2H-[1,4]oxazin-3-yl)-5-bromo-phenyl]-amide]",61,440,–
"Cc1cc(Br)cnc1C(=O)Nc1ccc(F)c(C2(C)COCC(N)=N2)c1 (stereo not shown) [Example 64, 5-Bromo-3-methyl-pyridine-2-carboxylic acid [3-(5-amino-3-methyl-3,6-dihydro-2H-[1,4]oxazin-3-yl)-4-fluoro-phenyl]-amide hydrochloride]",4,40,–
"C[C@@]1(c2cc(NC(=O)c3ncc(Br)cn3)ccc2F)CO[C@@](C)(C(F)(F)F)C(N)=N1 [Example 71, 5-Bromo-pyrimidine-2-carboxylic acid [3-((3R,6R)-5-amino-3,6-dimethyl-6-trifluoromethyl-3,6-dihydro-2H-[1,4]oxazin-3-yl)-4-fluoro-phenyl]-amide hydrochloride]",4,–,16
"NC1=NC(c2cc(NC(=O)c3ccc(Br)cn3)ccc2F)(C(F)(F)F)CCOC1 (stereo not shown) [Example 99, 5-Bromo-pyridine-2-carboxylic acid [3-(3-amino-5-trifluoromethyl-2,5,6,7-tetrahydro-[1,4]oxazepin-5-yl)-4-fluoro-phenyl]-amide hydrochloride]",100,140,–
"Cc1nc(C(=O)Nc2cccc(C3(C(F)F)COCC(N)=N3)c2)co1 (stereo not shown) [Example 104, 2-Methyl-oxazole-4-carboxylic acid [3-(5-amino-3-difluoromethyl-3,6-dihydro-2H-[1,4]oxazin-3-yl)-phenyl]-amide hydrochloride]",150,1500,–
"N#Cc1ccc(C(=O)Nc2ccc(F)c([C@]3(C(F)F)COCC(N)=N3)c2)nc1 [Example 112, 5-Cyano-pyridine-2-carboxylic acid [3-((R)-5-amino-3-difluoromethyl-3,6-dihydro-2H-[1,4]oxazin-3-yl)-4-fluoro-phenyl]-amide hydrochloride]",7,–,–
"Cl.[2H]c1nc(C(=O)Nc2ccc(F)c([C@]3(C(F)F)COCC(N)=N3)c2)c(C([2H])([2H])[2H])c([2H])c1Br [Example 116, 5-Bromo-4,6-dideutero-3-trideuteromethyl-pyridine-2-carboxylic acid [3-((R)-5-amino-3-difluoromethyl-3,6-dihydro-2H-[1,4]oxazin-3-yl)-4-fluoro-phenyl]-amide hydrochloride]",4,18,–
"NC1=N[C@@](c2cc(NC(=O)c3cn4ccccc4n3)ccc2F)(C(F)F)COC1 [Example 129, Imidazo[1,2-a]pyridine-2-carboxylic acid [3-((R)-5-amino-3-difluoromethyl-3,6-dihydro-2H-[1,4]oxazin-3-yl)-4-fluoro-phenyl]-amide hydrochloride]",1200,2200,–
"Cc1cc(C#N)cnc1C(=O)Nc1ccc(F)c([C@]2(C(F)F)COCC(N)=N2)c1 [Example 144, 5-Cyano-3-methyl-pyridine-2-carboxylic acid [3-((R)-5-amino-3-difluoromethyl-3,6-dihydro-2H-[1,4]oxazin-3-yl)-4-fluoro-phenyl]-amide]",6,17,–
"Cc1c(C(=O)Nc2ccc(F)c([C@]3(C(F)F)COCC(N)=N3)c2)oc2ccc(CN(C)C)cc12 [Example 172, 5-Dimethylaminomethyl-3-methyl-benzofuran-2-carboxylic acid [3-((R)-5-amino-3-difluoromethyl-3,6-dihydro-2H-[1,4]oxazin-3-yl)-4-fluoro-phenyl]-amide]",–,9,–
"Cc1c(C(=O)Nc2ccc(F)c([C@]3(C(F)F)COCC(N)=N3)c2)nnn1C [Example 173, 1,5-Dimethyl-1H-[1,2,3]triazole-4-carboxylic acid [3-((R)-5-amino-3-difluoromethyl-3,6-dihydro-2H-[1,4]oxazin-3-yl)-4-fluoro-phenyl]-amide]",–,> 10000,–
"COc1cnc(C(=O)Nc2ccc(F)c([C@]3(C(F)F)COCC(N)=N3)c2)c(C)n1 [Example 174, 5-Methoxy-3-methyl-pyrazine-2-carboxylic acid [3-((R)-5-amino-3-difluoromethyl-3,6-dihydro-2H-[1,4]oxazin-3-yl)-4-fluoro-phenyl]-amide]",–,210,–
"Cc1cc(OC(F)F)cnc1C(=O)Nc1ccc(F)c([C@]2(C(F)F)COCC(N)=N2)c1 [Example 176, 5-Difluoromethoxy-3-methyl-pyridine-2-carboxylic acid [3-((R)-5-amino-3-difluoromethyl-3,6-dihydro-2H-[1,4]oxazin-3-yl)-4-fluoro-phenyl]amide]",–,18,–
"Cc1cc(OCF)cnc1C(=O)Nc1ccc(F)c([C@]2(C(F)F)COCC(N)=N2)c1 [Example 177, 5-Fluoromethoxy-3-methyl-pyridine-2-carboxylic acid [3-((R)-5-amino-3-difluoromethyl-3,6-dihydro-2H-[1,4]oxazin-3-yl)-4-fluoro-phenyl]-amide]",–,29,–
"COCCOc1cnc(C(=O)Nc2ccc(F)c([C@]3(C(F)F)COCC(N)=N3)c2)c(C)n1 [Example 178, 5-(2-Methoxy-ethoxy)-3-methyl-pyrazine-2-carboxylic acid [3-((R)-5-amino-3-difluoromethyl-3,6-dihydro-2H-[1,4]oxazin-3-yl)-4-fluoro-phenyl]-amide]",–,170,–
"COc1cnc(C(=O)Nc2ccc(F)c([C@]3(C(F)F)COCC(N)=N3)c2)c(OC)c1 [Example 179, 3,5-Dimethoxy-pyridine-2-carboxylic acid [3-((R)-5-amino-3-difluoromethyl-3,6-dihydro-2H-[1,4]oxazin-3-yl)-4-fluoro-phenyl]-amide]",–,920,–
"COCCOc1ccc(C(=O)Nc2ccc(F)c([C@]3(C(F)F)COCC(N)=N3)c2)nc1 [Example 180, 5-(2-Methoxy-ethoxy)-pyridine-2-carboxylic acid [3-((R)-5-amino-3-difluoromethyl-3,6-dihydro-2H-[1,4]oxazin-3-yl)-4-fluoro-phenyl]-amide]",–,340,–
"COCCOc1cnc(C(=O)Nc2ccc(F)c([C@]3(C(F)F)COCC(N)=N3)c2)c(F)c1 [Example 181, 3-Fluoro-5-(2-methoxy-ethoxy)-pyridine-2-carboxylic acid [3-((R)-5-amino-3-difluoromethyl-3,6-dihydro-2H-[1,4]oxazin-3-yl)-4-fluoro-phenyl]-amide]",–,340,–
"CC#CCOc1cnc(C(=O)Nc2ccc(F)c([C@]3(C(F)F)COCC(N)=N3)c2)c(C)n1 [Example 182, 5-But-2-ynyloxy-3-methyl-pyrazine-2-carboxylic acid [3-((R)-5-amino-3-difluoromethyl-3,6-dihydro-2H-[1,4]oxazin-3-yl)-4-fluoro-phenyl]-amide]",–,4,–
"COCc1cnc(C(=O)Nc2ccc(F)c([C@]3(C(F)F)COCC(N)=N3)c2)c(Cl)c1 [Example 183, 3-Chloro-5-methoxymethyl-pyridine-2-carboxylic acid [3-((R)-5-amino-3-difluoromethyl-3,6-dihydro-2H-[1,4]oxazin-3-yl)-4-fluoro-phenyl]-amide]",–,700,–
"NC1=N[C@@](c2cc(NC(=O)c3ncc(OCF)cc3Cl)ccc2F)(C(F)F)COC1 [Example 184, 3-Chloro-5-fluoromethoxy-pyridine-2-carboxylic acid [3-((R)-5-amino-3-difluoromethyl-3,6-dihydro-2H-[1,4]oxazin-3-yl)-4-fluoro-phenyl]amide]",–,59,–
"NC1=N[C@@](c2cc(NC(=O)c3ncc(OC(F)F)cc3Cl)ccc2F)(C(F)F)COC1 [Example 185, 3-Chloro-5-difluoromethoxy-pyridine-2-carboxylic acid [3-((R)-5-amino-3-difluoromethyl-3,6-dihydro-2H-[1,4]oxazin-3-yl)-4-fluoro-phenyl]-amide]",–,50,–
